pIC50: −log10 of the molar value. Where two headings read alike, the source gives them in different places.
Legend:
[1] = tested on: MCP-1 response in THP-1 cells; assay: Calcium flux in THP-1 cells stimulated with human MCP-1 (FLIPR); type: cell-based; details: read-out: Calcium Flux IC50
Protocol: Compounds of were evaluated for their effect on calcium flux using methodology known in the art, e.g., Neote et al., Cell 1993, 72:415–425. Briefly, THP-1 cells were incubated with the fluorescence dye FLUO-4 for 1 hour, the cells were washed after this loading period, resuspended in HANKs buffer, and loaded into a 384-well plate. The cells were then incubated in the presence of a compound of Example 1–12, 14, 18, 22–23, 27–28, 30, or [bis-(4-chloro-phenyl)-methanesulfonyl]-acetic acid methyl ester. After a 30-minute incubation period, the cells were stimulated with 33 nM human MCP-1 and the calcium flux response recorded and quantified with a FLIPR^384® (384-well Fluorometric Imaging Plate Reader) ([…], Sunnyvale, Calif.). The IC50's (μM) of the inhibition of the maximal MCP-1 response are set out in Table 1.

[2] = molecular target: T1, MCP-1 receptor (300-19 cell membranes) (Homo sapiens, UniProt P41597); assay: Inhibition of binding of 125I-MCP-1 to 300-19 cell membranes
T1 construct: host or cells: 300-19 cells (membrane preparation)
Protocol: Compounds were also assayed for their ability to inhibit the binding of radiolabeled MCP-1 to cell membranes. The materials and methods are set out below.
Membrane Preparation. 300-19 cells were harvested by centrifugation and washed with PBS (Dulbecco's phosphate-buffered saline w/o Ca and Mg). Cells were frozen at −80° C. overnight then resuspensed in ice cold lysis buffer (5 mM HEPES, 2 mM EDTA, 10 μg/mL of leupeptin, aprotinin, and chymostatin, and 200 μg/mL PMSF). The cell suspension was centrifuged at 1,000 rpm for 10 minutes and the supernatant was transferred and centrifuged at 14,000 rpm for 45 minutes at 4° C. then discarded. The resulting pellet was resuspended in stock buffer (10 mM HEPES, 300 mM sucrose, 20 μg/mL of leupeptin, aprotinin, and chymostatin, and 200 μg/mL PMSF), aliquoted, and frozen at −80° C. until use. Typical binding assays used 1.0 μg/well protein.
Prepared membranes were resuspended in binding buffer (50 mM Tris, 10 mM MgCl2, 1 mM EDTA pH 7.4) at 10 μg/mL protein. Membranes (1.0 μg/well) were incubated with ^125I-MCP-1 (0.15 nM) in the absence or presence of unlabeled chemokine (465 nM) or a compound of Examples 1–11, 14, 16, 19, 22, 27–30, 33–34, or [bis-(4-chloro-phenyl)-methanesulfonyl]-acetic acid methyl ester (0.001 μM–40 μM) for 3 hours at room temperature in a 96-well plate (total volume 250 μL). The reaction was terminated by filtration using a 96-well plate harvester (Packard Filtermate 196 Harvester). Filters (Packard GF/C) were prewet with 0.3% PEI containing 0.5% BSA and washed 5 times with wash buffer (DPBS, 0.3 MnCl2, and 0.25% BSA) prior to reaction termination. After terminating the reaction, filters were washed 6 times with wash buffer, and allowed to dry overnight. Scintillation fluid (Packard's Micro Scint 20) was added to each well and radioactivity bound was determined by liquid scintillation spectrometry. Nonspecific binding was determined in the presence of 465 nM unlabeled MCP-1. The IC50's (μM) of the inhibition of the binding of the iodinated MCP-1 are set out in Table 2.

[3] = 0.5 h, THP-1 cells, 30-minute incubation, stimulated with 33 nM human MCP-1, inhibition of the maximal MCP-1 response
[4] = 300-19 cell membranes 1.0 μg/well, 125I-MCP-1 0.15 nM, 3 hours at room temperature, read-out: IC50 of the inhibition of the binding of the iodinated MCP-1

T1 sequence (P41597 whole entry): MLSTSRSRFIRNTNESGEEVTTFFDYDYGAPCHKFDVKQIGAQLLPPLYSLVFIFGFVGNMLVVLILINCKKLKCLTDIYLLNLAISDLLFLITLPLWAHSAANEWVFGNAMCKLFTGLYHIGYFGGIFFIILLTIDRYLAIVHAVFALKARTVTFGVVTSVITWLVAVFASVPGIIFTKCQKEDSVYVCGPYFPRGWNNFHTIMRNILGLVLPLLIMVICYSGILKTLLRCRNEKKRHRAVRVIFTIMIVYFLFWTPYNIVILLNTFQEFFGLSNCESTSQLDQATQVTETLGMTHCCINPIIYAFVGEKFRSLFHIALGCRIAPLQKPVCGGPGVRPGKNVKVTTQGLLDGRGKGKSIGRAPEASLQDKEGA

Row | SMILES | melting point [°C] | pIC50 ([1]; Homo sapiens, THP-1, 0.5 h) | pIC50 [2] | pIC50 [1, 3] | pIC50 [2, 4]
1 | O=C(COc1ccc(F)cc1F)CS(=O)(=O)C(c1ccc(Cl)cc1)c1ccc(Cl)cc1 | 54 to 56 | – | – | – | –
2 | C/C=C/C(=O)CS(=O)(=O)C(c1ccc(Cl)cc1)c1ccc(Cl)cc1 | 114 to 116 | – | – | – | –
3 | CN(C)C(=O)c1ccc(C(=O)CSC(c2ccc(Cl)cc2)c2ccc(Cl)cc2)s1 | 150 to 151 | – | – | – | –
4 | CC(C)(C)C(=O)CS(=O)(=O)C(c1ccc(Cl)cc1)c1ccc(Cl)cc1 | 128 to 130 | – | – | – | –
5 | O=C(CCc1ccccc1)CS(=O)(=O)C(c1ccc(Cl)cc1)c1ccc(Cl)cc1 | 106 to 107 | – | – | – | –
6 | CC(=O)CCS(=O)(=O)C(c1ccc(Cl)cc1)c1ccc(Cl)cc1 | 103 to 105 | – | – | – | –
7 | CC(=O)OCC(=O)CS(=O)(=O)C(c1ccc(Cl)cc1)c1ccc(Cl)cc1 | 57 to 60 | – | – | – | –
8 | O=C(CC(F)(F)F)CS(=O)(=O)C(c1ccc(Cl)cc1)c1ccc(Cl)cc1 | 48 to 50 | – | – | – | –
9 | CC(C)Cc1ccc(C(c2ccc(Cl)cc2)S(=O)(=O)CC(=O)C(F)(F)F)cc1 (stereo not shown) | 45 to 50 | – | – | – | –
10 | CC(=O)CS(=O)(=O)C(c1ccc(Cl)cc1)c1ccc(Cl)cc1 [Example 1, 1-[Bis-(4-chloro-phenyl)-methanesulfonyl]-propan-2-one] | 114 to 115 | 5.66 | 5.94 | – | –
11 | CCC(=O)CS(=O)(=O)C(c1ccc(Cl)cc1)c1ccc(Cl)cc1 [Example 2, 1-[Bis-(4-chloro-phenyl)-methanesulfonyl]-butan-2-one] | – | 5.12 | 5.13 | – | –
12 | O=C(CBr)CS(=O)(=O)C(c1ccc(Cl)cc1)c1ccc(Cl)cc1 [Example 3, 1-[Bis-(4-chloro-phenyl)-methanesulfonyl]-3-bromo-propan-2-one] | 122 to 123 | – | – | 5.95 | 6.78
13 | O=C(CS(=O)(=O)C(c1ccc(Cl)cc1)c1ccc(Cl)cc1)c1ccco1 [Example 5, 2-[Bis-(4-chloro-phenyl)-methanesulfonyl]-1-furan-2-yl-ethanone] | 138 to 139 | – | – | 5.14 | 5.59
14 | CC#CC(=O)CS(=O)(=O)C(c1ccc(Cl)cc1)c1ccc(Cl)cc1 [Example 6, 1-[Bis-(4-chloro-phenyl)-methanesulfonyl]-pent-3-yn-2-one] | – | – | – | 5.87 | –
15 | O=C(Cc1ccccc1)CS(=O)(=O)C(c1ccc(Cl)cc1)c1ccc(Cl)cc1 [Example 9, 1-[Bis-(4-chloro-phenyl)-methanesulfonyl]-3-phenyl-propan-2-one] | 54 to 56 | – | – | 5.54 | 5.20
16 | O=C(COc1ccccc1)CS(=O)(=O)C(c1ccc(Cl)cc1)c1ccc(Cl)cc1 [Example 10, 1-[Bis-(4-chloro-phenyl)-methanesulfonyl]-3-phenoxy-propan-2-one] | 110 to 112 | – | – | 6.01 | 5.46
17 | COc1ccc(OCC(=O)CS(=O)(=O)C(c2ccc(Cl)cc2)c2ccc(Cl)cc2)cc1 [Example 11, 1-[Bis-(4-chloro-phenyl)-methanesulfonyl]-3-(4-methoxy-phenoxy)-propan-2-one] | 116 to 117 | – | – | 5.32 | 5.47
18 | O=C(COc1ccc(Cl)cc1)CS(=O)(=O)C(c1ccc(Cl)cc1)c1ccc(Cl)cc1 [Example 12, 1-[Bis-(4-chloro-phenyl)-methanesulfonyl]-3-(4-chloro-phenoxy)-propan-2-one] | 105 to 107 | – | – | 5.09 | –
19 | COCC(=O)CS(=O)(=O)C(c1ccc(Cl)cc1)c1ccc(Cl)cc1 [Example 14, 1-[Bis-(4-chloro-phenyl)-methanesulfonyl]-3-methoxy-propan-2-one] | 124 to 125 | 5.41 | 5.87 | – | –
20 | Cn1ccnc1C(=O)CS(=O)(=O)C(c1ccc(Cl)cc1)c1ccc(Cl)cc1 [Example 16, 2-[Bis-(4-chloro-phenyl)-methanesulfonyl]-1-(1-methyl-1H-imidazol-2-yl)-ethanone] | 160 to 161 | – | – | – | 4.90
21 | CN(C)C(=O)c1ccc(C(=O)CS(=O)(=O)C(c2ccc(Cl)cc2)c2ccc(Cl)cc2)s1 [Example 18, 5-(2-[Bis-(4-chloro-phenyl)-methanesulfonyl]-acetyl)-thiophene-2-carboxylic acid dimethylamide] | 192 to 194 | – | – | 5.28 | –
22 | O=C(CS(=O)(=O)C(c1ccc(Cl)cc1)c1ccc(Cl)cc1)c1cccs1 [Example 19, 2-[Bis-(4-chloro-phenyl)-methanesulfonyl]-1-thiophen-2-yl-ethanone] | 150 to 151 | – | – | – | 5.21
23 | COC(=O)CC(=O)CS(=O)(=O)C(c1ccc(Cl)cc1)c1ccc(Cl)cc1 [Example 22, 4-[Bis-(4-chloro-phenyl)-methanesulfonyl]-3-oxo-butyric acid methyl ester] | 76 to 78 | – | – | 5.61 | 5.89
24 | O=C(CC(=O)Nc1ccccc1Cl)CS(=O)(=O)C(c1ccc(Cl)cc1)c1ccc(Cl)cc1 [Example 23, 4-[Bis-(4-chloro-phenyl)-methanesulfonyl]-N-(2-chloro-phenyl)-3-oxo-butyramide] | 92 to 95 | – | – | 5.82 | –
25 | O=C(CS(=O)(=O)Cc1ccccc1)CS(=O)(=O)C(c1ccc(Cl)cc1)c1ccc(Cl)cc1 [Example 27, 1-[Bis-(4-chloro-phenyl)-methanesulfonyl]-3-phenylmethanesulfonyl-propan-2-one] | 72 to 90 | – | – | 5.19 | 5.57
26 | O=S(=O)(CC(O)(O)C(F)(F)F)C(c1ccc(F)cc1)c1ccc(F)cc1 [Example 28, 3-[Bis(4-fluorophenyl)methanesulfonyl]-1,1,1-trifluoropropane-2,2-diol] | – | 6.38 | 6.68 | – | –
27 | O=S(=O)(CC(O)(O)C(F)(F)F)C(c1ccc(C(F)(F)F)cc1)c1ccc(C(F)(F)F)cc1 [Example 29, 3-[Bis(4-trifluoromethyl-phenyl)methanesulfonyl]-1,1,1-trifluoropropane-2,2-diol] | – | – | – | – | 5.52
28 | O=S(=O)(CC(O)(O)C(F)(F)F)C(c1ccc(Cl)cc1)c1ccc(Cl)c(Cl)c1 (stereo not shown) [Example 30, 3-[(4-Chlorophenyl)-(3,4-dichlorophenyl)methanesulfonyl]-1,1,1-trifluoropropane-2,2-diol] | – | – | – | 6.41 | 7.11
29 | O=C(Cc1ccc(F)cc1)CS(=O)(=O)C(c1ccc(Cl)cc1)c1ccc(Cl)cc1 [Example 33, 1-[Bis-(4-chloro-phenyl)-methanesulfonyl]-3-(4-fluoro-phenyl)-propan-2-one] | 106 to 107 | – | – | – | 4.84
30 | O=C(CS(=O)(=O)C(c1ccc(Cl)cc1)c1ccc(Cl)cc1)c1ccccn1 [Example 34, 2-[Bis-(4-chloro-phenyl)-methanesulfonyl]-1-pyridin-2-yl-ethanone] | 120 to 121 | – | – | – | 5.37
